The results in this text go back to paper doi:10.1101/657387v2 (biorxiv, 2019).

The structures appear in SMILES notation.

As usually defined, the EC50 is the concentration needed to bring the measured effect to its halfway point. The term inhibition denotes the drop in the measured response relative to a control, in per cent.

Common to all, as to experiment: whole-cell patch clamp, HEK-293T
Holding throughout (assay type): cell-based
On the technique in general: Patch clamp records ionic current or voltage across a cell membrane.

For experiment [1], the target named is T1, TASK-3 (hTASK-3) (Homo sapiens, UniProt Q9NPC2).
Experiment [2] addresses T1, TASK-3 (hTASK-3). The note with it: dose-response.
Experiment [3] has as its target T2, TASK-3/TASK-1 (hTASK-3/hTASK-1) (Homo sapiens, UniProt O14649+Q9NPC2).
Experiment [4] deals with T1, TASK-3 (hTASK-3). The note with it: read-out: % inhibition at 0.5 μM.
In experiment [5] the target is T2, TASK-3/TASK-1 (hTASK-3/hTASK-1). The note with it: read-out: % inhibition at 0.5 μM.

T1 sequence (Q9NPC2 whole entry): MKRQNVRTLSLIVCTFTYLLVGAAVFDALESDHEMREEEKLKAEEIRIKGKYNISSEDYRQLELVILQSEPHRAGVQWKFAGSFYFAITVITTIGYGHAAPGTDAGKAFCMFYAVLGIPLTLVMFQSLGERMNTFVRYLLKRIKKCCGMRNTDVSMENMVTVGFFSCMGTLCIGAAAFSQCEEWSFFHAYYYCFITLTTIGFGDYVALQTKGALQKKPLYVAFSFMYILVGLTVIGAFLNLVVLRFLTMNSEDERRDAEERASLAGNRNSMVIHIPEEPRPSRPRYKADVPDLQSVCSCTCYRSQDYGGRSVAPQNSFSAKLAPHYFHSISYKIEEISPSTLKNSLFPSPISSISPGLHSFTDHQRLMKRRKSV
T2 sequence (Q9NPC2 whole entry): as above
T2 sequence (O14649 whole entry): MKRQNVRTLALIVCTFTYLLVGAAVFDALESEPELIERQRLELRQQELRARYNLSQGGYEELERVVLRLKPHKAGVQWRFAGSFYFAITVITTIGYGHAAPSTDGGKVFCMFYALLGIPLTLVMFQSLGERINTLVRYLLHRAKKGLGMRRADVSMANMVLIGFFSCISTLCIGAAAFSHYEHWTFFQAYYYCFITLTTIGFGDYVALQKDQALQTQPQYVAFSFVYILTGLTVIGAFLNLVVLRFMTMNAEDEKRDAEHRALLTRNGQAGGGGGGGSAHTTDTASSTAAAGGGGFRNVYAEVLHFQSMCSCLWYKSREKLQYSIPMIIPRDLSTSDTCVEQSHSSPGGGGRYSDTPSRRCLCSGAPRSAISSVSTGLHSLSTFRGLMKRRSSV

`Cc1ccc(SCc2cc(O)nc(N=C(N)Nc3cccc4ccccc34)n2)cc1` [CHET3-1]: the EC50 at TASK-3 (hTASK-3) [1] was determined as 500 ± 100 nM.
Consider `Cc1ccc(SCc2cc(O)nc(N=C(N)Nc3ccc(C(C)(C)C)cc3)n2)cc1` [CHET3-2], for which the “whole-cell patch clamp, HEK-293T” value at TASK-3 (hTASK-3) [2] was “while CHET3-2 was inactive (Fig. 4B)”.
Take `Cc1ccc(SCc2cc(O)nc(N=C(N)Nc3ccc4c(c3)OCCO4)n2)cc1` [CHET3]: the concentration for a half-maximal effect (EC50) at TASK-3 (hTASK-3) [1] was found to be 1400 ± 200 nM; in experiment [3], 2500 ± 200 nM.
For `CCCC(=O)C1CCN(c2ncnc3c2CN(C(=O)c2ccc(-c4ccccc4)cc2)CC3)CC1` [PK-THPP], the inhibition at 0.5 µM at TASK-3 (hTASK-3) [4] was determined as 86 ± 3%; in experiment [5], 90 ± 2%.
